Results as given in patent publication US20190270992A1, “METHODS OF CONTROLLING RED BLOOD CELL PRODUCTION” (WISCONSIN ALUMNI RESEARCH FOUNDATION, priority 2018, published 2019).
Entries after “also recorded” stand apart in the source; their conditions may differ.

Columns and labels:
G1E-ER-GATA-1 cells = experiment: 5-ALA rescue of heme biosynthesis, qRT-PCR of zinc transporter genes; format: cell-based, murine; details: 1 mM 5-ALA to bypass ALAS-2 and rescue heme biosynthesis; FIG. 3B
Description: Cell culture. G1E-ER-GATA-1 cells were cultured in Iscove's modified Dulbecco's medium (IMDM; Gibco) containing 15% FBS (Gemini), 1% penicillin-streptomycin (Gemini), 2 U/ml erythropoietin (Amgen), 120 nM monothioglycerol (Sigma), and 0.6% conditioned medium from a Kit ligand-producing CHO cell line, and 1 μg/ml puromycin (Gemini). ER-GATA-1 activity was induced by adding 1 μM β-estradiol (Steraloids) to media. To rescue heme synthesis, 1 mM 5-aminolevulinic acid hydrochloride (5-ALA; Sigma) was added to media.
(§1) qRT-PCR. Total RNA was purified from 0.4-2×10^6 cells with TRIzol® (Life Technologies). RNA was treated with DNase I (Life Technologies) for 15 min at room temperature. DNase I was inactivated by EDTA and heating at 65° C. for 10 min. DNase I-treated RNA was incubated with 125 ng of a 5:1 mixture of oligo (dT) primers and random hexamer at 68° C. for 10 min. RNA/primers were incubated with Moloney MLV reverse transcriptase (Life Technologies), 10 mM DTT (Life Technologies), RNAsin® (Promega), and 0.5 mM deoxynucleoside triphosphates at 42° C. for 1 h, and then heat inactivated at 98° C. for 5 min. Real-time PCR reactions were conducted with Power SYBR® Green Master Mix (Applied Biosystems) using ViiA™ 7 Real-Time PCR system (Applied Biosystems). Primer sequences are described in Table 1.

[1] = tested on: mononuclear cells from G-CSF-mobilized peripheral blood; experiment: Cellularity after succinylacetone (flow cytometry, Wright-Giemsa staining); format: cell-based, human; details: succinylacetone during the last four days of culture
Description: (§2) Primary human mononuclear cells were isolated from G-CSF-mobilized peripheral blood using Histopaque® (Sigma). Cells were maintained in StemSpan™ SFEM medium (Stem Cell Technologies) supplemented with 1×CC100 cytokine mix (Stem Cell Technologies) for 4 days. […]
(§3) Flow cytometry. For intracellular zinc quantitation in mouse cells, cells were washed twice with PBS and incubated with 1 l/ml Ghost Dye™ Red 780 (TONBO Biosciences) for 30 min at 4° C. […] Cells were then washed twice with PBS and analyzed. […] Cells were then washed twice with PBS and analyzed. For intracellular zinc quantitation in human cells, cells were washed twice with HBSS and incubated with HBSS containing 1 μM FluoZin™-3 AM, 0.02% Pluronic® F-127, PE-conjugated anti-human CD71 (0.024 μg in 100 μl, eBioscience, 12-0719-42), and APC-conjugated anti-human CD235a (0.006 μg in 100 μl, eBioscience 17-9987-42) for 30 min at room temperature. […] Cells were then washed twice with PBS, stained with DAPI, and analyzed. Samples were analyzed using a BD LSR II (BD Biosciences). […]

[2] = tested on: mononuclear cells from G-CSF-mobilized peripheral blood; experiment: qRT-PCR of gene expression after succinylacetone in human erythroid differentiation culture; format: cell-based; details: succinylacetone vs no treatment, day 19 and 20
Description: Primary human mononuclear cells were isolated from G-CSF-mobilized peripheral blood using Histopaque® (Sigma). Cells were maintained in StemSpan™ SFEM medium (Stem Cell Technologies) supplemented with 1×CC100 cytokine mix (Stem Cell Technologies) for 4 days. To induce differentiation, cells were cultured in basal differentiation media [IMDM containing 15% FBS, 2 mM L-glutamine, 1% BSA (Sigma), 500 μg/ml holo human transferrin (Sigma), and 10 [μg/ml insulin (Sigma)] supplemented with 1 μM dexamethasone (Sigma), 1 μM β-estradiol (Steraloids), 5 ng/ml IL-3, 100 ng/ml SCF, and 6 U/ml erythropoietin (Amgen) for 5 days, followed by four days in basal differentiation media supplemented with 50 ng/ml SCF and 6 U/ml erythropoietin and then seven days in basal differentiation media containing 2 U/ml erythropoietin.
as §1

[3] = tested on: mononuclear cells from G-CSF-mobilized peripheral blood; experiment: Heme quantitation after succinylacetone in human erythroid differentiation culture; format: cell-based; details: succinylacetone during the last four days of culture; day 20
Description: as §2
Heme quantitation. […] Electronic absorption spectra of cleared lysates were recorded on a Varian Cary 4 Bio spectrophotometer, and the oxyhemoglobin concentration of each cleared lysate was calculated using extinction coefficients at 542 nm and 577 nm for human oxyhemoglobin monomers. Total heme in each cleared lysate was determined for two technical replicates using the pyridine hemochrome assay in which 200 μl of a stock solution of 0.1 N NaOH and 33% (v/v) pyridine was combined with 100 μl of the cleared lysate. Upon addition of 2-5 mg of sodium dithionite, electronic absorption spectra were recorded, and total heme concentrations were calculated using known extinction coefficients of the ferrous bis(pyridine) protoheme complex at 525 nm and 556 nm as is known in the art.

[4] = tested on: lineage-negative fetal liver-derived hematopoietic precursors; experiment: Zinc chelation with TPEN and ZnCl2 add-back, flow cytometry (FluoZin-3, live/dead, CD71, Ter119); format: cell-based, murine
Description: (§4) Primary erythroid precursors from E14.5 murine fetal livers were cultured in StemPro®-34 (Gibco) supplemented with 10% nutrient supplement (Gibco), 1×L-glutamine (Cellgro), 1% penicillin-streptomycin (Gemini), 0.1 mM monothioglycerol (Sigma), 1 NM dexamethasone (Sigma), 0.5 U/ml erythropoietin (Amgen), and 1% conditioned medium from a Kit ligand-producing CHO cell line (expansion culture). To chelate zinc, 10 NM N,N,N′,N′-Tetrakis(2-pyridylmethyl)ethylenediamine (TPEN, Sigma, P4413) was added to the media, and 20 NM ZnCl2 (Fisher Scientific) was added back. After two days, cells were differentiated in IMDM (Gibco) containing 10% FBS (Gemini), 10% plasma-derived serum (PDS; Animal Technologies), 5% protein-free hybridoma medium II (PFHM II; Gibco), 1% penicillin-streptomycin (Gemini), 0.1 mM monothioglycerol (Sigma) and 6 U/ml of erythropoietin (Amgen).
Flow cytometry. For intracellular zinc quantitation in mouse cells, cells were washed twice with PBS and incubated with 1 l/ml Ghost Dye™ Red 780 (TONBO Biosciences) for 30 min at 4° C. Cells were washed once with PBS containing 2% FBS and twice with HBSS, and treated with HBSS containing 1 μM FluoZin™-3 AM (Invitrogen), 0.02% Pluronic® F-127 (Invitrogen), BV421-conjugated anti-mouse CD71 (0.2 μg in 100 μl, Biolegend, 113813), and APC-conjugated anti-mouse Ter119 (0.2 μg in 100 μl, Biolegend, 116212) for 30 min at room temperature. Cells were washed once with HBSS and incubated for 15 min at room temperature. Cells were then washed twice with PBS and analyzed. […] Cells were then washed twice with PBS and analyzed. For intracellular zinc quantitation in human cells, cells were washed twice with HBSS and incubated with HBSS containing 1 μM FluoZin™-3 AM, 0.02% Pluronic® F-127, PE-conjugated anti-human CD71 (0.024 μg in 100 μl, eBioscience, 12-0719-42), and APC-conjugated anti-human CD235a (0.006 μg in 100 μl, eBioscience 17-9987-42) for 30 min at room temperature. […] Cells were then washed twice with PBS, stained with DAPI, and analyzed. Samples were analyzed using a BD LSR II (BD Biosciences). […]

Slc39a8 mRNA = experiment: shRNA-mediated knockdown, qRT-PCR of Slc39a8 mRNA; format: cell-based, mouse; details: Luciferase shRNA as control
Description: as §4
(§5) qRT-PCR. Total RNA was purified from 0.4-2×10^6 cells with TRIzol® (Life Technologies). RNA was treated with DNase I (Life Technologies) for 15 min at room temperature. DNase I was inactivated by EDTA and heating at 65° C. for 10 min. DNase I-treated RNA was incubated with 125 ng of a 5:1 mixture of oligo (dT) primers and random hexamer at 68° C. for 10 min. […]

Slc30a1 mRNA = experiment: shRNA-mediated knockdown, qRT-PCR of Slc30a1 mRNA; format: cell-based, mouse; details: off-target check
Description: as §4, §5

[5] = tested on: lineage-negative hematopoietic precursors (E14.5); experiment: Erythroid populations (CD71, Ter119, FSC-A flow cytometry) in shRNA knockdown cells; format: cell-based, murine; details: day 5
Description: as §4, with “After two days, cells were differentiated in IMDM (Gibco) containing 10% FBS (Gemini), 10% plasma-derived serum (PDS; Animal Technologies), 5% protein-free hybridoma medium II (PFHM II; Gibco), 1% penicillin-streptomycin (Gemini), 0.1 mM monothioglycerol (Sigma) and 6 U/ml of erythropoietin (Amgen).” left out
as §3

[6] = tested on: lineage-negative hematopoietic precursors (E14.5); experiment: Intracellular zinc (FluoZin-3 flow cytometry) in shRNA knockdown cells; format: cell-based, murine
Description: as §4, with “After two days, cells were differentiated in IMDM (Gibco) containing 10% FBS (Gemini), 10% plasma-derived serum (PDS; Animal Technologies), 5% protein-free hybridoma medium II (PFHM II; Gibco), 1% penicillin-streptomycin (Gemini), 0.1 mM monothioglycerol (Sigma) and 6 U/ml of erythropoietin (Amgen).” left out
as §3

[7] = tested on: lineage-negative hematopoietic precursors (E14.5); experiment: Thiazole orange (TO) discrimination of nucleated erythroblasts and enucleated progeny in shRNA knockdown cells; format: cell-based, murine; details: expanded 2 days, differentiated 3 days
Description: as §4, with “After two days, cells were differentiated in IMDM (Gibco) containing 10% FBS (Gemini), 10% plasma-derived serum (PDS; Animal Technologies), 5% protein-free hybridoma medium II (PFHM II; Gibco), 1% penicillin-streptomycin (Gemini), 0.1 mM monothioglycerol (Sigma) and 6 U/ml of erythropoietin (Amgen).” left out
as §3

Compound: Cl.NCC(=O)CCC(=O)O [5-ALA, 5-aminolevulinic acid hydrochloride]
- Slc30a1 expression (G1E-ER-GATA-1 cells): increased

Compound: CC(=O)CC(=O)CCC(=O)O [Succinylacetone, succinylacetone]
- cellularity [1]: did not impact
- ACTB expression [2]: unaffected
- HBA1 expression [2]: reduced
- HBB expression [2]: reduced
- SLC30A1 expression [2]: reduced
- decrease of heme in oxyhemoglobin [3]: 3.4 fold
- decrease of total heme [3]: 2.9 fold

Compound: c1ccc(CN(CCN(Cc2ccccn2)Cc2ccccn2)Cc2ccccn2)nc1 [TPEN, N,N,N′,N′-Tetrakis(2-pyridylmethyl)ethylenediamine]
- live cell population ([4]; 10 NM TPEN in expansion culture, day 3): considerably decreased
- intracellular zinc levels in erythroid precursors of varying maturation stage ([4]; 10 NM TPEN in expansion culture, FluoZin-3 MFI): reduced

Compound: [Cl-].[Cl-].[Zn+2] [ZnCl2]
- effect of adding ZnCl2 to the media on the actions of TPEN ([4]; 10 NM TPEN, 20 NM ZnCl2 added back): negated the actions of TPEN

Compound: TGATAATTGTCACTGACAG (listed as DNA, chemistry not fully specified) [shRNAs targeting Slc39a8, retrovirus-expressed shRNA against mouse zinc importer Slc39a8]
- downregulation of Slc39a8 mRNA (Slc39a8 mRNA; day five (expanded two days, differentiated three days)): 71%
- downregulation of Slc39a8 mRNA (Slc39a8 mRNA; day two (expanded for two days)): 86%
- Slc30a1 mRNA levels upon Slc39a8 loss (Slc30a1 mRNA): did not impact
- cellularity [5]: did not impact
- intracellular zinc in all (more mature) populations ([6]; erythroid differentiation culture, day 5): no effect; also recorded: did not alter
- decrease of intracellular zinc in R3 cells ([6]; expansion culture, day 2): 3.3 fold
- cell populations (CD71/TO) [7]: did not influence
